Consider 22 compounds from patent publication US9738655B2, “Tetrahydroisoquinolines containing substituted azoles as factor XIa inhibitors” (BRISTOL-MYERS SQUIBB COMPANY, priority 2013, dated 2017).

Assay [1] concerns the target purified human plasma kallikrein (Homo sapiens (Human), UniProt P03952). Put plainly: Plasma kallikrein enzyme inhibition assay (chromogenic substrate S-2302). It counts as biochemical.
Assay [2] addresses purified human Factor XIa (Homo sapiens (Human), UniProt P03951). Nature of the assay: Factor XIa enzyme inhibition assay (chromogenic substrate S-2366).
Setting [3] is: measured at 25° C. (no asterisk).
Setting [4] is: read-out: Factor XIa Ki, measured at 25° C.
[5] abbreviates: measured at 25° C. (no asterisk), TFA salt.
[6] abbreviates: read-out: Factor XIa Ki, measured at 25° C., TFA salt.

Structures can show the parent of a compound that is named as a salt. Where two headings read alike, the source gives them in different places.

Sequence of purified human plasma kallikrein (P03952 391-638): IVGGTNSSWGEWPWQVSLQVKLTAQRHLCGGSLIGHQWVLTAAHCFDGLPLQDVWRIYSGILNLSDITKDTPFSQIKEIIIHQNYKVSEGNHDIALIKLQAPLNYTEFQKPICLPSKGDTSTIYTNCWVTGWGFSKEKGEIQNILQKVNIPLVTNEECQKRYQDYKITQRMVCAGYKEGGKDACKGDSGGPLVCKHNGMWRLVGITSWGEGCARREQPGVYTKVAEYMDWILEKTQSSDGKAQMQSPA
Sequence of purified human plasma kallikrein (P03952 20-390 partner): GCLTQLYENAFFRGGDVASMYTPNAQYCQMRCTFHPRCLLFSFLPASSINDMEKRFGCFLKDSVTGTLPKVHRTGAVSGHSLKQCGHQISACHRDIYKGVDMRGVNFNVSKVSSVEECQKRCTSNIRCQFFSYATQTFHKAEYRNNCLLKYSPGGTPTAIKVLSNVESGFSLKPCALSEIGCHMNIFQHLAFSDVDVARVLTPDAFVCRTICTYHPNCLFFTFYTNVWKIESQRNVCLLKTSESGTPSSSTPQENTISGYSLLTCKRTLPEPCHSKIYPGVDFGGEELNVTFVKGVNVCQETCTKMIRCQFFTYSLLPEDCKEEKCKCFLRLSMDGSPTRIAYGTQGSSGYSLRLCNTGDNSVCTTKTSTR
Sequence of purified human Factor XIa (P03951 388-625): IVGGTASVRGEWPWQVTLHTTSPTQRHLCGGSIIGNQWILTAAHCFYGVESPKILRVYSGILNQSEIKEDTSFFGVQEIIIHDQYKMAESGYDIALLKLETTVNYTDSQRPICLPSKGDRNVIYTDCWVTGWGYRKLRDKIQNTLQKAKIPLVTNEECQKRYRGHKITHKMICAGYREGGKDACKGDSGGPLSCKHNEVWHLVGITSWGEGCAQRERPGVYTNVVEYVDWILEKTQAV
Sequence of purified human Factor XIa (P03951 19-387 partner): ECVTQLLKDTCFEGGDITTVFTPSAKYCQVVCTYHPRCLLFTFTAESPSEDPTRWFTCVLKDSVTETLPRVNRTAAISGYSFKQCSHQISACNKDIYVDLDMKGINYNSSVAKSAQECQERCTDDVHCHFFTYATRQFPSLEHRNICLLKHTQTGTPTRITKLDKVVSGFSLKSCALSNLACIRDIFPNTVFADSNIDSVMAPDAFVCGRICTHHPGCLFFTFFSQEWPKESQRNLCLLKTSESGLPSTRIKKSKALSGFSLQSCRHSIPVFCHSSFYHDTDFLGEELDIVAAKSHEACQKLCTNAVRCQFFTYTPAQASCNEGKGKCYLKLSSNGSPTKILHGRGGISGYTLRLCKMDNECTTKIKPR

As a reminder, the Ki is the dissociation constant of the complex between target and ligand, obtained from inhibition or displacement. `CO[C@@H]1CCN(c2cccc3c2CCN(C(=O)[C@H]2CC(c4cccc(Cl)c4F)=NO2)[C@H]3C(=O)Nc2ccc(C(=O)O)cc2)C1` [Example 299, 4-((R)-2-((R)-3-(3-chloro-2-fluorophenyl)-4,5-dihydroisoxazole-5-carbonyl)-5-((R)-3-methoxypyrrolidin-1-yl)-1,2,3,4-tetrahydroisoquinoline-1-carboxamido)benzoic acid, TFA salt]: the values for the Ki in assay [1] (setting [3]) and in assay [2] (setting [4]) were 316 nM and 62.7 nM, respectively.
For `CO[C@@H]1CCN(c2cccc3c2CCN(C(=O)[C@H]2CC(c4cccc(Cl)c4F)=NO2)[C@@H]3C(=O)Nc2ccc(C(=O)O)cc2)C1` [Example 300, 4-((S)-2-((R)-3-(3-chloro-2-fluorophenyl)-4,5-dihydroisoxazole-5-carbonyl)-5-((R)-3-methoxypyrrolidin-1-yl)-1,2,3,4-tetrahydroisoquinoline-1-carboxamido)benzoic acid, TFA salt], the Ki in assay [1] (setting [3]) was 4.15 nM; in assay [2] (setting [4]) it was under 5 nM.
Take `COC1CCN(c2cccc3c2CCN(C(=O)C2CCN(c4cccc(Cl)c4F)C2)C3C(=O)Nc2ccc(C(=O)O)cc2)CC1` (centres unmarked) [Example 307, 4-(2-(1-(3-Chloro-2-fluorophenyl)pyrrolidine-3-carbonyl) 5-(4-methoxypiperidin-1-yl)-1,2,3,4-tetrahydroisoquinoline-1-carboxamido)benzoic acid, TFA salt]: the Ki turned out to be 593 nM in assay [1] (setting [5]) and 165 nM in assay [2] (setting [6]).
The matching figures for `COC1CCN(c2cccc3c2CCN(C(=O)C2CCN(c4cccc(Cl)c4F)C2)C3C(=O)Nc2ccc(C(=O)O)cc2)CC1` (centres unmarked) [Example 308, 4-(2-(1-(3-Chloro-2-fluorophenyl)pyrrolidine-3-carbonyl)-5-(4-methoxypiperidin-1-yl)-1,2,3,4-tetrahydroisoquinoline-1-carboxamido)benzoic acid, TFA salt]: 79.7 nM and 6.03 nM.
In the case of `COC1CCN(c2cccc3c2CCN(C(=O)c2cn(-c4cccc(Cl)c4F)nn2)[C@@H]3C(=O)Nc2ccc(C(=O)O)cc2)CC1` [Example 314, (S)-4-(2-(1-(3-chloro-2-fluorophenyl)-1H-1,2,3-triazole-4-carbonyl)-5-(4-methoxypiperidin-1-yl)-1,2,3,4-tetrahydroisoquinoline-1-carboxamido)benzoic acid, TFA salt], the Ki in assay [1] (setting [3]) is 10.3 nM; in assay [2] (setting [4]), under 5 nM.
The matching figures for `COC1CCN(c2cccc3c2CCN(C(=O)c2cnn(-c4cccc(Cl)c4F)c2)[C@@H]3C(=O)Nc2ccc(C(=O)O)cc2)CC1` [Example 315, (S)-4-(2-(1-(3-chloro-2-fluorophenyl)-1H-pyrazole-4-carbonyl)-5-(4-methoxypiperidin-1-yl)-1,2,3,4-tetrahydroisoquinoline-1-carboxamido)benzoic acid, TFA salt]: 19.6 nM and under 5 nM.
For `COC1CCN(c2cccc3c2CCN(C(=O)c2cnn(-c4cccc(Cl)c4F)c2)[C@H]3C(=O)Nc2ccc(C(=O)O)cc2)CC1` [Example 316, (R)-4-(2-(1-(3-chloro-2-fluorophenyl)-1H-pyrazole-4-carbonyl)-5-(4-methoxypiperidin-1-yl)-1,2,3,4-tetrahydroisoquinoline-1-carboxamido)benzoic acid, TFA salt], the values for the Ki in assay [1] (setting [3]) and in assay [2] were 578 nM and 42.9 nM, respectively.
`CN(C)C(=O)C1CCN(c2cccc3c2CCN(C(=O)c2cnn(-c4cccc(Cl)c4F)c2N)C3C(=O)Nc2ccc(C(=O)O)cc2)CC1` (centres unmarked) [Example 317, 4-(2-(5-Amino-1-(3-chloro-2-fluorophenyl)-1H-pyrazole-4-carbonyl)-5-(4-(dimethylcarbamoyl)piperidin-1-yl)-1,2,3,4-tetrahydroisoquinoline-1-carboxamido)benzoic acid, TFA salt]: the figures for the Ki in assay [1] (setting [3]) and in assay [2] (setting [4]) were 41.1 nM and under 5 nM, respectively.
The matching figures for `CN1CCN(c2cccc3c2CCN(C(=O)c2cnn(-c4cccc(Cl)c4F)c2N)C3C(=O)Nc2ccc(C(=O)O)cc2)CC1=O` (centres unmarked) [Example 318, 4-(2-(5-Amino-1-(3-chloro-2-fluorophenyl)-1H-pyrazole-4-carbonyl)-5-(4-methyl-3-oxopiperazin-1-yl)-1,2,3,4-tetrahydroisoquinoline-1-carboxamido)benzoic acid, TFA salt]: 21.1 nM and under 5 nM.
For the compound `CN1CCN(c2cccc3c2CCN(C(=O)c2cncc(-c4cccc(Cl)c4)c2)C3C(=O)Nc2ccc(C(=O)O)cc2)CC1` (centres unmarked) [Example 320, 4-(2-(5-(3-Chlorophenyl)nicotinoyl)-5-(4-methylpiperazin-1-yl)-1,2,3,4-tetrahydroisoquinoline-1-carboxamido)benzoic acid, 2 TFA salt], the Ki worked out at 124 nM in assay [1] (setting [3]) and 158 nM in assay [2] (setting [4]).
For the compound `CN1CCN(c2cccc3c2CCN(C(=O)c2cncc(-c4ccccc4)c2)C3C(=O)Nc2ccc(C(=O)O)cc2)CC1` (centres unmarked) [Example 321, 4-(5-(4-Methylpiperazin-1-yl)-2-(5-phenylnicotinoyl)-1,2,3,4-tetrahydroisoquinoline-1-carboxamido)benzoic acid], the inhibition constant (Ki) in assay [1] (setting [3]) was determined as 177 nM; in assay [2] (setting [4]), 236 nM.
The matching figures for `COC1CCN(c2cccc3c2CCN(C(=O)c2cc(-c4cccc(Cl)c4F)ccn2)C3C(=O)Nc2ccc(C(=O)O)cc2)CC1` (centres unmarked) [Example 322, 4-(2-(4-(3-Chloro-2-fluorophenyl)picolinoyl)-5-(4-methoxypiperidin-1-yl)-1,2,3,4-tetrahydroisoquinoline-1-carboxamido)benzoic acid, 2 TFA salt]: 138 nM and 8.21 nM.
On to `COC1CCN(c2cccc3c2CCN(C(=O)c2cncc(-c4cccc(Cl)c4F)c2)C3C(=O)Nc2ccc(C(=O)O)cc2)CC1` (centres unmarked) [Example 323, 4-(2-(5-(3-Chloro-2-fluorophenyl)nicotinoyl)-5-(4-methoxypiperidin-1-yl)-1,2,3,4-tetrahydroisoquinoline-1-carboxamido)benzoic acid, 2 TFA salt], for which the Ki in assay [1] (setting [3]) was found to be 99.2 nM; in assay [2] (setting [4]) it was 5.28 nM.
For `COC1CCN(c2cccc3c2CCN(C(=O)c2ccnc(-c4cccc(Cl)c4F)c2)C3C(=O)Nc2ccc(C(=O)O)cc2)CC1` (centres unmarked) [Example 324, 4-(2-(2-(3-Chloro-2-fluorophenyl)isonicotinoyl)-5-(4-methoxypiperidin-1-yl)-1,2,3,4-tetrahydroisoquinoline-1-carboxamido)benzoic acid, 2 TFA salt] the same measures were 958 nM and 37.1 nM.
With `COC1CCN(c2cccc3c2CCN(C(=O)c2cccc(-c4cccc(Cl)c4F)n2)C3C(=O)Nc2ccc(C(=O)O)cc2)CC1` (centres unmarked) [Example 325, 4-(2-(6-(3-Chloro-2-fluorophenyl)picolinoyl)-5-(4-methoxypiperidin-1-yl)-1,2,3,4-tetrahydroisoquinoline-1-carboxamido)benzoic acid, 2 TFA salt], the Ki in assay [1] (measured at 37° C. (*)) was over 6000 nM; in assay [2] (setting [4]) it was 2400 nM.
For the compound `COC1CCN(c2cccc3c2CCN(C(=O)N2CCCC(c4cccc(Cl)c4F)C2)C3C(=O)Nc2ccc(C(=O)O)cc2)CC1` (centres unmarked) [Example 326, 4-(2-(3-(3-Chloro-2-fluorophenyl)piperidine-1-carbonyl)-5-(4-methoxypiperidin-1-yl)-1,2,3,4-tetrahydroisoquinoline-1-carboxamido)benzoic acid, TFA salt], the Ki in assay [1] (measured at 37° C. (*)) was over 2000 nM; in assay [2], 330 nM.
Regarding `COC1CCN(c2cccc3c2CCN(C(=O)c2cnn(-c4ccnc(C)c4)c2)C3C(=O)Nc2ccc(C(=O)O)cc2)CC1` (centres unmarked) [Example 327, 4-(5-(4-Methoxypiperidin-1-yl)-2-(1-(2-methylpyridin-4-yl)-1H-pyrazole-4-carbonyl)-1,2,3,4-tetrahydroisoquinoline-1-carboxamido)benzoic acid, TFA salt], the Ki in assay [1] (measured at 37° C. (*)) was over 6000 nM; in assay [2] (setting [4]), 816 nM.
As to `COC1CCN(c2cccc3c2CCN(C(=O)c2cnn(-c4cccc(Cl)c4)c2)C3C(=O)Nc2ccc(C(=O)O)cc2)CC1` (centres unmarked) [Example 329, 4-(2-(1-(3-chlorophenyl)-1H-pyrazole-4-carbonyl)-5-(4-methoxypiperidin-1-yl)-1,2,3,4-tetrahydroisoquinoline-1-carboxamido)benzoic acid, TFA salt], the Ki is 229 nM in assay [1] (setting [3]) and 26.6 nM in assay [2] (setting [4]).
As for `COC1CCN(c2cccc3c2CCN(C(=O)c2cnn(-c4cccnc4)c2)C3C(=O)Nc2ccc(C(=O)O)cc2)CC1` (centres unmarked) [Example 330, 4-(5-(4-methoxypiperidin-1-yl)-2-(1-(pyridin-3-yl)-1H-pyrazolc-4-carbonyl)-1,2,3,4-tetrahydroisoquinoline-1-carboxamido)benzoic acid, 2 TFA salt], the Ki in assay [1] (measured at 37° C. (*)) is over 6000 nM; in assay [2] (setting [4]), 3510 nM.
The matching figures for `COC1CCN(c2cccc3c2CCN(C(=O)c2cnn(-c4ccc5nonc5c4)c2)C3C(=O)Nc2ccc(C(=O)O)cc2)CC1` (centres unmarked) [Example 331, 4-(2-(1-(benzo[c][1,2,5]oxadiazol-5-yl)-1H-pyrazole-4-carbonyl)-5-(4-methoxypiperidin-1-yl)-1,2,3,4-tetrahydroisoquinoline-1-carboxamido)benzoic acid]: over 6000 nM and 7050 nM.
With `C=C(C)c1cccc2c1CCN(C(=O)c1cn(-c3cccc(Cl)c3F)nn1)C2C(=O)Nc1ccc(C(=O)O)cc1` (centres unmarked) [Example 333, 4-(2-(1-(3-Chloro-2-fluorophenyl)-1H-1,2,3-triazole-4-carbonyl)-5-(prop-1-en-2-yl)-1,2,3,4-tetrahydroisoquinoline-1-carboxamido)benzoic acid], the Ki amounted to 61.3 nM in assay [1] (setting [3]) and 18.2 nM in assay [2] (setting [4]).
The matching figures for `Nc1cccc2c1CCN(C(=O)c1cn(-c3cccc(Cl)c3F)nn1)C2C(=O)Nc1ccc(C(=O)O)cc1` (centres unmarked) [Example 334, 4-(5-Amino-2-(1-(3-chloro-2-fluorophenyl)-1H-1,2,3-triazole-4-carbonyl)-1,2,3,4-tetrahydroisoquinoline-1-carboxamido)benzoic acid, TFA salt]: 6.26 nM and 10.6 nM.
